Among the data in patent EP0248231B1, “Pharmacologically active peptides” (Brantl, Victor, Dr. med., Dipl.-Chem., priority 1986, dated 1993) are IC50 values, retold here.

Residues, ends and D or L forms follow the SMILES beside them.

The subject of this assay is plexus myentericus/ Längsmuskel-Präparat des Meerschweinchenileums (GPI). The assay is described as follows: Inhibition of electrically induced contraction of the myenteric plexus/longitudinal muscle preparation of guinea pig ileum (GPI). The format is cell-based. Conditions: means of 4-6 determinations; standard deviation below 14 %; read-out: GPI: Konzentration, die notwendig ist, die elektrisch induzierte Kontraktion des Meerschweinchen-Darm-Präparates (GPI) um 50 % zu hemmen (IC₅₀-Wert). The source says:
Die beiden Substanzen zeigen spezifische opiatartige Wirkungen am elektrisch stimulierten plexus myentericus/ Längsmuskel-Präparat des Meerschweinchenileums (GPI), Methode: Schulz und Goldstein, J. Pharmacol. Exptl. Ther. 183, 400, 1972. Die Ergebnisse sind in Tabelle 1 aufgeführt.
Tabelle 1. Opiatartige Wirkungen zweier erfindungsgemäßer Peptide; die Zahlen geben diejenige Konzentration (µM) an, die notwendig ist, die elektrisch induzierte Kontraktion des Meerschweinchen-Darm-Präparates (GPI) um 50 % zu hemmen (IC₅₀-Wert). Die Zahlen sind Mittelwerte aus 4-6 Bestimmungen; die Standardabweichung von den Mittelwerten ist kleiner als 14 %. Die Hemmungen des GPI sind mit dem spezifischen Opioid-Antagonisten Naloxon aufhebbar bzw. bei Vorbehandlung blockierbar. (Endkonzentration des Naloxons im Organbad 0,5 µM).

In the case of `Oc1ccc2c3c1O[C@H]1[C@@H](O)C=C[C@H]4[C@@H](C2)NCC[C@@]341` [Normorphin], the IC50 stood at 0.1 µM.

For the compound “H-YPWTQ-OH [Tyr-Pro-Trp-Thr-Gln, H-Tyr-Pro-Trp-Thr-Gln-OH]”, the IC50 came out at 46.1 µM.

For the compound `C[C@@H](O)[C@H](NC(=O)[C@H](Cc1c[nH]c2ccccc12)NC(=O)[C@@H]1CCCN1C(=O)[C@@H](N)Cc1ccc(O)cc1)C(=O)O` [Tyr-Pro-Trp-Thr, H-Tyr-Pro-Trp-Thr-OH] (H-YPWT-OH), the IC50 worked out at 45.2 µM.
